Laboratory results from patent US20250235543A1, “MODIFIED PROTEINS AND PROTEIN DEGRADERS” (Cullgen (Shanghai), Inc., priority 2021, published 2025).
Blank lines part the entries; values can stand above or below the compound they belong to.

Legend:
Format in all cases: cell-based
[1] = system: cyclin D1, cyclin D2, cyclin D3, CDK4 and CDK6; experiment: Immunoblotting of cyclin D and CDK4/6 protein levels in Calu-1 cells; details: indicated concentrations, 8 hours
Method: Calu-1 (FIG. 2A) or BT-549 (FIG. 2B) cells were treated with CPD-002, CPD-004, or palbociclib at indicated concentrations for 16 hours.
Calu-1 cells were treated with CPD-031 at indicated concentrations for 16 hours.
Calu-1 cells were treated with CPD-002 or CPD-031 at 500 nM or 100 nM, respectively for indicated period of time.
Calu-1 cells were pre-treated with DMSO, 20 μM MG-132 (MG), 5 μM MLN4924 (MLN) or 1 μM TAK-243 (TAK) for 2 hours, and subsequently incubated with 500 nM CPD-002, 500 nM CPD-004, or 100 nM CPD-031 for another 4 h or 2 h prior to immunoblotting (FIG. 5A-5B).
Calu-1 cells were treated with a dose range of negative control compounds CPD-042 or CPD-049 for 16 hours (FIG. 6A-6B).
Calu-1 cells were treated with reference compounds CP-10 or BSJ-03-123 at indicated concentrations for 8 hours.
(§1) Cultured cells were washed with cold PBS once and lysed in cold RIPA buffer supplemented with protease inhibitors and phosphatase inhibitors (Beyotime Biotechnology). The solutions were then incubated at 4° C. for 30 min with gentle agitation to fully lysed cells. Cell lysates were centrifuged at 13,000 rpm for 10 min at 4° C. and pellets were discarded. Total protein concentrations in the lysates were determined following BCA assays (Beyotime Biotechnology). Cell lysates were mixed with Laemmli loading buffer and heated at 99° C. for 5 min. Proteins were resolved on SDS-PAGE and visualized using Western ECL Substrate kits on a ChemiDoc MP Imaging system (Bio-Rad). Protein bands were quantitated using the Image Lab software provided by Bio-Rad.

CDK4, CDK6 = experiment: Immunoblot of CDK4 and CDK6 protein levels in Calu-1 cells; details: 8 hours, dose range
Method: Specific exemplary heterobifunctional compounds were characterized in Calu-1, BT-549 and other cells. Cells that express cyclin D1-3 and CDK4/6 proteins were treated with heterobifunctional compounds disclosed herein at indicated concentrations for 16 hours. Cells were collected, lysed and subject to immunoblotting using an antibody specific to cyclin D1, cyclin D2, cyclin D3, CDK4, CDK6 or phosphorylated R^b proteins. Tubulin or GAPDH was used as the loading control. DMSO treatment was used as the negative control.
In a time-course study, Calu-1 cells were treated with 500 nM CPD-002, or 100 nM CPD-031 for indicated period of time prior to immunoblotting (FIG. 4A-4B).
To verify that heterobifunctional compound-mediated degradation is dependent on the binding to CDK4-cyclin D complex, we designed three negative control compounds, CPD-042, CPD-049 and CPD-380, which are derived from CPD-002 CPD-031 and CPD-343, respectively. These three control compounds bear the same DDB1 ligand and linker as their corresponding active heterobifunctional compounds but with modified warheads to impair the binding of the control compounds to CDK4. […] Two cereblon (CRBN)-recruiting reference heterobifunctional compounds, CP-10 (Su, J Med Chem, 2019; CAS No.: 2366268-80-4) and BSJ-03-123 (Brand, Cell Chem Biol, 2019; CAS No.: 2361493-16-3) were analyzed in Calu-1 cells.

Calu-1 = experiment: Cell viability assay, Calu-1; details: Calu-1 cells, 96-well plates, serial dilution, 3 days
Method: Cells were treated with CDK4/6 inhibitors palbociclib, ribociclib, or abemaciclib, or heterobifunctional compounds CPD-002 or CPD-031 following a 9-point serial dilution for 3 days.
(§2) Cells were seeded at a density of 2,000-5,000 cells per well in 96-well assay plates and treated with test compounds following a 10-point serial dilution for 3-6 days. Cell viability was determined using the CellTiter-Lumi assay kit according to the manufacturer's instructions. The dose-response curves were determined and IC50 values were calculated using the GraphPad Prism software following a nonlinear regression (least squares fit) method. Data presented was mean±standard deviation (SD) unless otherwise indicated.

Calu-1 cells = experiment: Anti-viability / anti-proliferation in Calu-1 cells; details: 3 days
Method: FIG. 6 show immunoblots of cyclin D1, cyclin D2, cyclin D3, and CDK4 proteins expressed by Calu-1 cells after treatment with a dose range of control compounds CPD-042 (A), or CPD-049 (B) for 16 hours, and anti-viability curves of Calu-1 cells in the presence of CPD-002 and CPD-042 (C), or CPD-031 and CPD-049 (D).
FIG. 11A-11B show immunoblots of cyclin D1, CDK4, and CDK6 proteins expressed by Calu-1 cells after treatment with a dose range of heterobifunctional reference compound CP-10, or BSJ-03-123 for 8 hours (FIG. 11A), and anti-viability curves of Calu-1 cells in the presence of CP-10, or BSJ-03-123 for 3 days (FIG. 11B).
(§3) To verify that heterobifunctional compound-mediated degradation is dependent on the binding to CDK4-cyclin D complex, we designed three negative control compounds, CPD-042, CPD-049 and CPD-380, which are derived from CPD-002 CPD-031 and CPD-343, respectively. These three control compounds bear the same DDB1 ligand and linker as their corresponding active heterobifunctional compounds but with modified warheads to impair the binding of the control compounds to CDK4. […] However, the binding to CDK4 is not sufficient for cyclin D degradation. Two cereblon (CRBN)-recruiting reference heterobifunctional compounds, CP-10 (Su, J Med Chem, 2019; CAS No.: 2366268-80-4) and BSJ-03-123 (Brand, Cell Chem Biol, 2019; CAS No.: 2361493-16-3) were analyzed in Calu-1 cells.

[2] = system: cyclin D1, cyclin D2, cyclin D3; experiment: Immunoblot of cyclin D protein levels in Calu-1 (and BT-549) cells; details: Calu-1 cells, 8 hours, dose range
P300 and CBP [3] = experiment: Immunoblotting of P300 and CBP protein levels in multiple cell lines; details: LNCaP, Calu-1, NCI-H1703, or MM.1R cells, 8 hours
Method: LNCaP, Calu-1, NCI-H1703, or MM.1R cells were treated with CPD-191 at indicated concentrations for 8 hours.
as §1

P300/CBP = P300/CBP cellular protein degradation
Summary of the method: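 Treated cells lysed in RIPA buffer with protease and phosphatase inhibitors, protein normalized by BCA assay. P300/CBP levels assessed by SDS-PAGE Western blot with ECL detection and band densitometry.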

P300 and CBP [4] = experiment: Immunoblot of P300 and CBP protein levels in LNCaP, Calu-1, NCI-H1703 or MM.1R cells; details: Calu-1, NCI-H1703 or MM.1R cell lines, 8 hours
Excerpt: Additional exemplary heterobifunctional compounds were designed to modulate the protein levels of either P300/CBP, or BRD4, and characterized in multiple cell lines. […] Taken together, DDB1 ligands conjugating with different target ligands may modulate the cellular target protein levels of cyclin D, CDK4/6, P300/CBP and BRD4.

T47D cells [5] = experiment: Flow cytometric analysis of Annexin V/7-AAD stained T47D cells; details: 6 days
Method: ER^+ breast cancer T47D cells were treated with DMSO, palbociclib, heterobifunctional compound CPD-343, or negative control compound CPD-380 for 6 days at doses approximating IC50 and IC90 concentrations determined in FIGS. 10A and 13. Cells were harvested by trypsinization, staining was carried out using the Annexin V Apoptosis Detection Kit. The percentages of early apoptotic (Annexin V^+7-AAD^−, lower right quadrant), late apoptotic (Annexin V^+7-AAD^+, upper right quadrant) and necrotic cells (Annexin V-7-AAD^+, upper left quadrant) are indicated on dot plots. […] Furthermore, we developed one ER^+ breast cancer T47D model with acquired resistance after long period of treatment with 1 μM palbociclib (over IC90). Cells were deemed resistant when growing in the presence of palbo at the same rate as parental cells. Palbo resistance was determined by CellTiter-Lumi cell viability assay.

T47D cells [6] = experiment: Anti-viability / anti-proliferation in T47D cells; details: 6 days, CPD-380 vs CPD-343
Method: (§4) FIG. 10A-10B show immunoblots of cyclin D1, cyclin D3, CDK4, p-Rb, FoxM1 and cyclin A2 proteins expressed by T47D cells after treatment with a dose range of heterobifunctional compound CPD-343, or its control compound CPD-380 for 48 hours (FIG. 10A), and anti-viability curves of T47D cells in the presence of CP-343, or CPD-380 for 6 days (FIG. 10B).
as §3

Cyclin D = experiment: Immunoblotting of degradation in T47D cells; details: dose range, 48 hours
Method: T47D cells were treated with a dose range of heterobifunctional compound CPD-343 or its negative control compound CPD-380 for 48 hours.
as §1

T47D cells [7] = experiment: Annexin V apoptosis flow cytometry in T47D cells; details: 6 days, doses approximating IC50 and IC90
Method: T47D cells were treated with DMSO, palbociclib, heterobifunctional compound CPD-343, or negative control compound CPD-380 for 6 days at doses approximating IC50 and IC90 concentrations as indicated. Cells were harvested by trypsinization, staining was carried out using the Annexin V Apoptosis Detection Kit.
Assays were performed on the CytoFLEX Cytometer (Beckman Coulter), and data were analyzed using CytExpert software. For cell death and apoptosis analysis, cells were harvested by trypsinization, staining was carried out using the Annexin V Apoptosis Detection Kit (BD Biosciences). Briefly, cells were resuspended in 1× binding buffer and incubated with fluorochrome-conjugated Annexin V and 7-AAD for 15 min in darkness at room temperature.

[8] = system: cyclin D1, cyclin D3, CDK4; experiment: Immunoblot of cyclin D and CDK4 degradation in T47D cells; details: 48 hours, CPD-380 vs CPD-343
Method: as §4, §3

T47D cells [9] = experiment: Cell viability assay, T47D; details: 10-point serial dilution, 6 days
Method: T47D cells were seeded in 96-well plates and treated with of CP-343, or CPD-380 following a 10-point serial dilution for 6 days.
as §2

SMILES: CC(=O)c1c(C)c2cnc(Nc3ccc(N4CCN(CCOCCOCCOCCNC(=O)COc5cccc6c5C(=O)N(C5CCC(=O)NC5=O)C6=O)CC4)cn3)nc2n(C2CCCC2)c1=O (centres unmarked) [BSJ-03-123, reference compound]
CDK4 and CDK6 protein levels [1]: significantly reduced CDK4 and CDK6 protein levels
cyclin DC protein levels [1]: didn't affect cyclin DC protein levels
CDK4 and CDK6 protein levels (CDK4, CDK6): significantly reduced
cell viability (cellular anti-proliferation activity) (Calu-1): didn't significantly suppress tumor cell viability
Calu-1 cell growth (Calu-1 cells): did not affect cyclin D1 protein levels (FIG. 11A) or suppress Calu-1 cell growth
cyclin D1 protein levels [2]: did not affect

DC50 (P300 and CBP [4]): < 10 nM
SMILES: CC(=O)N1CCc2c(c(N3CCCc4cc(-c5cnn(C)c5)c(C(F)F)cc43)nn2C2CCN(CC(=O)NCCCCNc3ccc(C(=O)Nc4ncc(C)s4)c(C)c3)CC2)C1 [CPD-191]
P300 and CBP protein levels (P300 and CBP [3]): reduced P300 and CBP protein levels in a concentration-dependent manner
P300/CBP Degradation (100 nM) (P300/CBP): A (degradation activity >= 80%)
reduction of P300 and CBP protein levels (P300 and CBP [4]; dose range): significantly reduced

SMILES: CNc1ccc(C(=O)Nc2ccc(OC)nn2)c(NC(=O)CCOCCOCCNC(=O)CN2CCN(c3ccc(N(C)c4ncc5c(C)c(C(C)=O)c(=O)n(C6CCCC6)c5n4)nc3)CC2)c1 [CPD-380]
Annexin V+ population (T47D cells [5]; 10 nM): 7.1%
Annexin V+ population (T47D cells [5]; 200 nM): 28.6%
decrease of cellular anti-proliferation activity versus corresponding active compound (T47D cells [6]): > 20 fold
degradation potencies compared with corresponding active heterobifunctional compound (Cyclin D): much weaker degradation potencies
effect on cell apoptosis (T47D cells [7]): much less effect on cell apoptosis
decrease of degradation potency versus corresponding active compound [8]: > 15 fold
cell viability (cellular anti-proliferation activity) (T47D cells [9]): much weaker cellular anti-proliferation activities
